Measurements taken from ChEMBL document CHEMBL3885881, “DrugMatrix”.

Species on record: Rattus norvegicus
Assay: DrugMatrix - Regimen: Daily Repeat
Assay type: toxicity, organism-based, Sprague-Dawley
Parameters: regimen Daily Repeat, gender Male, age 6-8 weeks
Settings: in vivo, po, route oral GAVAGE, vehicle .5 % CMC; for BASOPHIL / EOSINOPHIL / ERYTHROCYTE COUNT / HEMATOCRIT / HEMOGLOBIN / LEUKOCYTE COUNT / LYMPHOCYTE / MEAN CORPUSCULAR HEMOGLOBIN / MEAN CORPUSCULAR HEMOGLOBIN CONCENTRATION / MONOCYTE / NEUTROPHIL / PLATELET COUNT: tissue Blood; for ALANINE AMINOTRANSFERASE / ALBUMIN / ALKALINE PHOSPHATASE / ASPARTATE AMINOTRANSFERASE / BLOOD UREA NITROGEN / CHLORIDE / CHOLESTEROL / CREATINE PHOSPHOKINASE / CREATININE / GLUCOSE / PHOSPHORUS / POTASSIUM / SODIUM / TOTAL BILIRUBIN / TOTAL PROTEIN: tissue Plasma
[1] = 0 mg/kg, 72 h, dose level Control, time 3 day
[2] = 0 mg/kg, 120 h, dose level Control, time 5 day
[3] = 60 mg/kg, 72 h, dose level Low, time 3 day
[4] = 60 mg/kg, 120 h, dose level Low, time 5 day

CC(C)Cc1ccc([C@H](C)C(=O)O)cc1 [DEXIBUPROFEN]
BASOPHIL [1]: 1.52% | EOSINOPHIL [1]: 0.98% | ERYTHROCYTE COUNT [1]: 6.96 x10E6/uL | HEMATOCRIT [1]: 44.65% | HEMOGLOBIN [1]: 13.62 G/DL | LEUKOCYTE COUNT [1]: 9.83 x10E3/uL | LYMPHOCYTE [1]: 76.48% | MEAN CORPUSCULAR HEMOGLOBIN [1]: 19.57 pg | MEAN CORPUSCULAR HEMOGLOBIN CONCENTRATION [1]: 30.47 G/DL | MONOCYTE [1]: 2.13% | NEUTROPHIL [1]: 18.6% | PLATELET COUNT [1]: 1217.17 x10E3/uL | ALANINE AMINOTRANSFERASE [1]: 41 u/L | ALBUMIN [1]: 3.77 G/DL | ALKALINE PHOSPHATASE [1]: 411.83 u/L | ASPARTATE AMINOTRANSFERASE [1]: 62.83 u/L | BLOOD UREA NITROGEN [1]: 15.17 mg/dL | CHLORIDE [1]: 104.33 MEQ/L | CHOLESTEROL [1]: 71.17 mg/dL | CREATINE PHOSPHOKINASE [1]: 123.5 u/L | CREATININE [1]: 0.55 mg/dL | GLUCOSE [1]: 182.67 mg/dL | PHOSPHORUS [1]: 11.23 mg/dL | POTASSIUM [1]: 7.03 MEQ/L | SODIUM [1]: 148 MEQ/L | TOTAL BILIRUBIN [1]: 0.57 mg/dL | TOTAL PROTEIN [1]: 6.85 G/DL | BASOPHIL [2]: 1.35% | EOSINOPHIL [2]: 0.43% | ERYTHROCYTE COUNT [2]: 6.96 x10E6/uL | HEMATOCRIT [2]: 44.35% | HEMOGLOBIN [2]: 13.98 G/DL | LEUKOCYTE COUNT [2]: 9.45 x10E3/uL | LYMPHOCYTE [2]: 80.83% | MEAN CORPUSCULAR HEMOGLOBIN [2]: 20.1 pg | MEAN CORPUSCULAR HEMOGLOBIN CONCENTRATION [2]: 31.52 G/DL | MONOCYTE [2]: 2.37% | NEUTROPHIL [2]: 14.05% | PLATELET COUNT [2]: 1298 x10E3/uL | ALANINE AMINOTRANSFERASE [2]: 42.17 u/L | ALBUMIN [2]: 3.77 G/DL | ALKALINE PHOSPHATASE [2]: 419 u/L | ASPARTATE AMINOTRANSFERASE [2]: 66.67 u/L | BLOOD UREA NITROGEN [2]: 16.67 mg/dL | CHLORIDE [2]: 103.17 MEQ/L | CHOLESTEROL [2]: 66.33 mg/dL | CREATINE PHOSPHOKINASE [2]: 148.33 u/L | CREATININE [2]: 0.58 mg/dL | GLUCOSE [2]: 196.83 mg/dL | PHOSPHORUS [2]: 11.8 mg/dL | POTASSIUM [2]: 6.47 MEQ/L | SODIUM [2]: 148.33 MEQ/L | TOTAL BILIRUBIN [2]: 0.53 mg/dL | TOTAL PROTEIN [2]: 6.77 G/DL | BASOPHIL [3]: 1.63% | EOSINOPHIL [3]: 0.33% | ERYTHROCYTE COUNT [3]: 7.19 x10E6/uL | HEMATOCRIT [3]: 45.6% | HEMOGLOBIN [3]: 14.37 G/DL | LEUKOCYTE COUNT [3]: 11 x10E3/uL | LYMPHOCYTE [3]: 73.1% | MEAN CORPUSCULAR HEMOGLOBIN [3]: 19.97 pg | MEAN CORPUSCULAR HEMOGLOBIN CONCENTRATION [3]: 31.47 G/DL | MONOCYTE [3]: 2.23% | NEUTROPHIL [3]: 22.3% | PLATELET COUNT [3]: 1212.33 x10E3/uL | ALANINE AMINOTRANSFERASE [3]: 40.33 u/L | ALBUMIN [3]: 3.57 G/DL | ALKALINE PHOSPHATASE [3]: 328 u/L | BLOOD UREA NITROGEN [3]: 13.33 mg/dL | CHLORIDE [3]: 104 MEQ/L | CHOLESTEROL [3]: 71 mg/dL | CREATINE PHOSPHOKINASE [3]: 116 u/L | CREATININE [3]: 0.6 mg/dL | GLUCOSE [3]: 170.33 mg/dL | PHOSPHORUS [3]: 11.63 mg/dL | POTASSIUM [3]: 6.3 MEQ/L | SODIUM [3]: 150 MEQ/L | TOTAL BILIRUBIN [3]: 0.37 mg/dL | BASOPHIL [4]: 1.23% | EOSINOPHIL [4]: 0.3% | ERYTHROCYTE COUNT [4]: 6.82 x10E6/uL | HEMATOCRIT [4]: 42.17% | HEMOGLOBIN [4]: 13.37 G/DL | LEUKOCYTE COUNT [4]: 13 x10E3/uL | LYMPHOCYTE [4]: 76.73% | MEAN CORPUSCULAR HEMOGLOBIN [4]: 19.6 pg | MEAN CORPUSCULAR HEMOGLOBIN CONCENTRATION [4]: 31.67 G/DL | MONOCYTE [4]: 2.2% | NEUTROPHIL [4]: 18.83% | PLATELET COUNT [4]: 1398.33 x10E3/uL | ALANINE AMINOTRANSFERASE [4]: 34 u/L | ALBUMIN [4]: 3.5 G/DL | ALKALINE PHOSPHATASE [4]: 320.33 u/L | ASPARTATE AMINOTRANSFERASE [4]: 59.67 u/L | BLOOD UREA NITROGEN [4]: 15.67 mg/dL | CHLORIDE [4]: 104.67 MEQ/L | CHOLESTEROL [4]: 70.33 mg/dL | CREATINE PHOSPHOKINASE [4]: 96 u/L | CREATININE [4]: 0.53 mg/dL | GLUCOSE [4]: 186.33 mg/dL | PHOSPHORUS [4]: 12.03 mg/dL | POTASSIUM [4]: 6.2 MEQ/L | SODIUM [4]: 149.33 MEQ/L | TOTAL BILIRUBIN [4]: 0.3 mg/dL | TOTAL PROTEIN [4]: 6.27 G/DL
